The values that follow come from patent US12077503B2, “Substituted cyclic amides and their use as herbicides” (FMC CORPORATION, priority 2015, dated 2024).

Holding throughout (type): in vivo
For experiment [1], the system named is ryegrass, Italian (Italian ryegrass, Lolium multiflorum). The experiment is described as follows: Test A postemergence. Conditions: Lolium multiflorum, post-emergence, 240 h; for pest or weed control at 125 g/ha: 125 g ai/ha, visual injury vs untreated controls after approx. 10 d, 0 = no effect, 100 = complete control, read-out: Ryegrass, Italian plant response rating (0 to 100 scale); for pest or weed control at 500 g/ha: 500 g ai/ha. Put shortly: (§1)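 Treatment is preemergence as a directed soil spray after planting, or postemergence at the one- to two-leaf stage, with test chemical in a non-phytotoxic solvent mixture plus surfactant. Plants stay in the greenhouse about 10 d before visual injury scoring on a 0 to 100 scale versus untreated controls.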

The subject of experiment [2] is pigweed (Amaranthus retroflexus). The experiment is described as follows: Test A postemergence. Conditions: Amaranthus retroflexus, post-emergence, 240 h; for pest or weed control at 125 g/ha: 125 g ai/ha, visual injury vs untreated controls after approx. 10 d, 0 = no effect, 100 = complete control, read-out: Pigweed plant response rating (0 to 100 scale); for pest or weed control at 500 g/ha: 500 g ai/ha. Put shortly: as §1

Experiment [3] has as its system giant foxtail (Setaria faberii). The experiment is described as follows: Test A postemergence. The settings on record: Setaria faberi, post-emergence, 240 h; for pest or weed control at 125 g/ha: 125 g ai/ha, visual injury vs untreated controls after approx. 10 d, 0 = no effect, 100 = complete control, read-out: Foxtail, Giant plant response rating (0 to 100 scale); for pest or weed control at 500 g/ha: 500 g ai/ha. Put shortly: as §1

The test system of experiment [4] is barnyardgrass (Echinochloa crus-galli). Description: Test A postemergence. Conditions: Echinochloa crus-galli, post-emergence, 240 h; for pest or weed control at 125 g/ha: 125 g ai/ha, visual injury vs untreated controls after approx. 10 d, 0 = no effect, 100 = complete control, read-out: Barnyardgrass plant response rating (0 to 100 scale); for pest or weed control at 500 g/ha: 500 g ai/ha. In short, it runs like this: as §1

Experiment [5] relates to ducksalad (Heteranthera limosa). Description: Test B flooded paddy test. The settings on record: Heteranthera limosa, 250 g ai/ha, Flood; 0 to 100 scale where 0 is no effect and 100 is complete control; read-out: Ducksalad plant response rating. In short, it runs like this: (§2)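 Rating scale 0–100 (visual, vs untreated controls) after a 13–15 d greenhouse period; application to the flood layer, 3 cm above soil and maintained; plants at 2-leaf stage when treated.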

In a further experiment the test system is rice (Oryra sativa). The experiment is described as follows: Test B flooded paddy test. The settings on record: Oryza sativa, 250 g ai/ha, Flood; 0 to 100 scale where 0 is no effect and 100 is complete control; read-out: Rice plant response rating. Put shortly: as §2
The subject of experiment [6] is barnyardgrass (Echinochloa crus-galli). Description: Test B flooded paddy test. The settings on record: Echinochloa crus-galli, 250 g ai/ha, Flood; 0 to 100 scale where 0 is no effect and 100 is complete control; read-out: Barnyardgrass plant response rating. In short, it runs like this: as §2
Experiment [7] relates to sedge, umbrella (small-flower umbrella sedge, Cyperus difformis). The experiment is described as follows: Test B flooded paddy test. The settings on record: Cyperus difformis, 250 g ai/ha, Flood; 0 to 100 scale where 0 is no effect and 100 is complete control; read-out: Sedge, Umbrella plant response rating. Put shortly: as §2
The test system of experiment [8] is ryegrass, Italian (Italian ryegrass, Lolium multiflorum). The experiment is described as follows: Test A preemergence. Conditions: Lolium multiflorum, pre-emergence, 240 h, preemergence, 0 to 100 scale where 0 is no effect and 100 is complete control, read-out: Ryegrass, Italian plant response rating; for pest or weed control at 125 g/ha: 125 g ai/ha, visual injury rating, approximately 10 d; for pest or weed control at 500 g/ha: 500 g ai/ha. Put shortly: as §1

The subject of a further experiment is Kochia (Kochia scoparia). The experiment is described as follows: Test A preemergence. Conditions: Bassia scoparia, pre-emergence, 240 h, preemergence, 0 to 100 scale where 0 is no effect and 100 is complete control, read-out: Kochia plant response rating; for pest or weed control at 125 g/ha: 125 g ai/ha, visual injury rating, approximately 10 d; for pest or weed control at 500 g/ha: 500 g ai/ha. In short, it runs like this: as §1

Experiment [9] concerns ragweed (common ragweed, Ambrosia elatior). Description: Test A preemergence. The settings on record: Ambrosia artemisiifolia, pre-emergence, 240 h, preemergence, 0 to 100 scale where 0 is no effect and 100 is complete control, read-out: Ragweed plant response rating; for pest or weed control at 125 g/ha: 125 g ai/ha, visual injury rating, approximately 10 d; for pest or weed control at 500 g/ha: 500 g ai/ha. Put shortly: as §1

Experiment [10] relates to pigweed (Amaranthus retroflexus). The experiment is described as follows: Test A preemergence. Conditions: Amaranthus retroflexus, pre-emergence, 240 h, preemergence, 0 to 100 scale where 0 is no effect and 100 is complete control, read-out: Pigweed plant response rating; for pest or weed control at 125 g/ha: 125 g ai/ha, visual injury rating, approximately 10 d; for pest or weed control at 500 g/ha: 500 g ai/ha.

The subject of experiment [11] is giant foxtail (Setaria faberii). Description: Test A preemergence. The settings on record: Setaria faberi, pre-emergence, 240 h, preemergence, 0 to 100 scale where 0 is no effect and 100 is complete control, read-out: Foxtail, Giant plant response rating; for pest or weed control at 125 g/ha: 125 g ai/ha, visual injury rating, approximately 10 d; for pest or weed control at 500 g/ha: 500 g ai/ha. Put shortly:
as §1

Experiment [12] relates to barnyardgrass (Echinochloa crus-galli). Description: Test A preemergence. Conditions: Echinochloa crus-galli, pre-emergence, 240 h, preemergence, 0 to 100 scale where 0 is no effect and 100 is complete control, read-out: Barnyardgrass plant response rating; for pest or weed control at 125 g/ha: 125 g ai/ha, visual injury rating, approximately 10 d; for pest or weed control at 500 g/ha: 500 g ai/ha. In short, it runs like this: as §1

The structures appear in SMILES notation.

As for `Cc1c(F)cccc1NC(=O)[C@H]1C(=O)N(C)C[C@@H]1c1ccc2c(c1)OC(F)(F)O2` [Compound 1252], the pest or weed control at 125 g/ha came out at 70% in experiment [1] (postemergence); 0% in [2] (postemergence); 80% in experiment [3] (postemergence); 80% in experiment [4] (postemergence); 80% in experiment [8]; 80% with Kochia (Kochia scoparia). The pest or weed control at 125 g/ha in [9] was 60%; in [10], 70%; in experiment [11], 90%; in experiment [12], 100%. Further, the pest or weed control at 500 g/ha worked out at 70% in [1] (Postemergence, visual injury, 0 to 100 scale (0 no effect, 100 complete control), approx. 10 d, read-out: Plant response rating, Ryegrass, Italian); 50% in [2] (Postemergence, visual injury, 0 to 100 scale (0 no effect, 100 complete control), approx. 10 d, read-out: Plant response rating, Pigweed); 80% in experiment [3] (Postemergence, visual injury, 0 to 100 scale (0 no effect, 100 complete control), approx. 10 d, read-out: Plant response rating, Foxtail, Giant); 90% in [4] (Postemergence, visual injury, 0 to 100 scale (0 no effect, 100 complete control), approx. 10 d, read-out: Plant response rating, Barnyardgrass); 90% in [8]; 80% in the experiment with Kochia (Kochia scoparia). Further, the pest or weed control at 500 g/ha in [9] was determined as 70%; in experiment [10], 90%; in experiment [11], 100%; in experiment [12], 100%. Moreover, the pest or weed control at 250 g/ha was found to be 100% in [5], 30% in the experiment on rice (Oryra sativa), 65% in experiment [6] and 0% in [7].
For `Cc1c(F)cccc1NC(=O)[C@H]1C(=O)N(C)C[C@@H]1c1ccc(OC(F)F)cc1` [Compound 1213], the pest or weed control at 125 g/ha is 0% in [1] (postemergence); 0% in [2] (postemergence); 90% in experiment [3] (postemergence); 100% in experiment [4] (postemergence); 20% in experiment [8]; 70% with Kochia (Kochia scoparia). In addition, the pest or weed control at 125 g/ha is 50% in experiment [9], 50% in [10], 100% in [11] and 100% in [12]. The pest or weed control at 500 g/ha came out at 50% in experiment [1] (postemergence, 0 to 100 scale, 0 is no effect, 100 is complete control, read-out: Ryegrass, Italian plant response rating); 0% in experiment [2] (postemergence, 0 to 100 scale, 0 is no effect, 100 is complete control, read-out: Pigweed plant response rating); 90% in experiment [3] (postemergence, 0 to 100 scale, 0 is no effect, 100 is complete control, read-out: Foxtail, Giant plant response rating); 100% in [4] (postemergence, 0 to 100 scale, 0 is no effect, 100 is complete control, read-out: Barnyardgrass plant response rating); 70% in experiment [8]; 80% in the experiment with Kochia (Kochia scoparia). Besides, the pest or weed control at 500 g/ha in [9] stood at 70%; in [10] it was 80%; in experiment [11], 100%; in experiment [12] it was 100%. Further, the pest or weed control at 250 g/ha in [5] is 100%; with rice (Oryra sativa) it was 20%; in experiment [6], 70%; in experiment [7], 0%.
